Test results published in the Deep4Chem optical property database.
Values joined by “and” are separate entries in the source; they are usually repeats but may differ in a detail not shown here. Equal entries are not always repeated. Each block holds one compound with its values, some of them ahead of it.

Assay: solvent given as SMILES
[1] = in O=P(c1ccccc1)(c1ccccc1)c1ccccc1Oc1ccccc1P(=O)(c1ccccc1)c1ccccc1

SMILES: O=Cc1cc(C=O)c2ccc3c(N4CCCCC4)cc(N4CCCCC4)c4ccc1c2c43
emission maximum (in C1COCCO1): 585 nm | emission maximum (in CC#N): 602 nm | emission maximum (in CC(C)=O): 598 nm | emission maximum (in CCCCCC): 557 nm | emission maximum (in CCO): 609 nm | emission maximum (in CCOC(C)=O): 587 nm | emission maximum (in CO): 613 nm | emission maximum (in CS(C)=O): 609 nm | emission maximum (in Cc1ccccc1): 582 nm | emission maximum (in ClCCl): 602 nm

SMILES: CN(C)CCN(Cc1c2ccccc2cc2ccccc12)c1ccc([N+](=O)[O-])cc1
emission maximum (in C1CCCCC1): 411 nm | emission maximum (in C1CCOC1): 414 nm | emission maximum (in CC#N): 389 nm | emission maximum (in CC(C)=O): 387 nm | emission maximum (in CCO): 410 nm | emission maximum (in CN(C)C=O): 389 nm | emission maximum (in CO): 389 nm | emission maximum (in ClC(Cl)Cl): 415 nm

emission maximum (in CO): 661 nm | emission maximum (in ClC(Cl)Cl): 675 nm
SMILES: CC[n+]1c(C=C2C(=O)C(C=C3N(C)c4ccccc4C3(C)C)=C2[O-])[se]c2ccccc21

emission maximum (in ClC(Cl)Cl): 415 nm
SMILES: CCCCCCn1c2ccccc2c2cc3c4cc5c6ccccc6n(CCCCCC)c5cc4c4cc5c(C)cc(=O)oc5cc4c3cc21

SMILES: CC1(C)c2ccccc2N(c2ccc3c(c2)Oc2ccccc2S3(=O)=O)c2ccccc21
emission maximum (in Cc1ccccc1): 451 nm | emission maximum [1]: 458 nm

emission maximum (in C1CCCCC1): 359 nm | emission maximum (in CC#N): 408 nm
SMILES: CN(C)c1ccc(-c2nc3cccnc3[nH]2)cc1

SMILES: CCC/N=C/c1cc2ccc(N(C)C)cc2cc1OC
emission maximum (in C1CCOC1): 429 nm | emission maximum (in CC#N): 448 nm | emission maximum (in CC(C)O): 547 nm | emission maximum (in CCOC(C)=O): 441 nm | emission maximum (in CN(C)C=O): 449 nm | emission maximum (in CS(C)=O): 456 nm | emission maximum (in Cc1ccccc1): 418 nm | emission maximum (in ClCCl): 434 nm | emission maximum (in O): 556 nm

emission maximum (in ClCCl): 750 nm
SMILES: CCCCCCOc1cc(N(CC)CC)ccc1/C=C(\C#N)c1ccc(/C=C/C(=C(C#N)C#N)c2ccc(N(c3ccccc3)c3ccccc3)cc2)s1

emission maximum (in CO): 773 nm
SMILES: O=C(O)CCCCCn1/c(=C/C=C/C2=[N+](CCCCCC(=O)O)c3cccc4cccc2c34)c2cccc3cccc1c32

SMILES: c1ccc2nc3cccc(-c4ccc(-n5c6ccccc6c6ccccc65)cc4)c3cc2c1
emission maximum (in C1CCOC1): 466 nm | emission maximum (in CC#N): 527 nm | emission maximum (in CC(C)=O): 497 nm | emission maximum (in CC(C)OC(C)C): 444 nm | emission maximum (in CCCCCC): 434 nm | emission maximum (in CCCCOCCCC): 442 nm | emission maximum (in CCOC(C)=O): 460 nm | emission maximum (in CCOCC): 443 nm | emission maximum (in ClCCl): 486 nm

emission maximum (in CO): 651 nm | emission maximum (in ClC(Cl)Cl): 666 nm
SMILES: CC[n+]1c(C=C2C(=O)C(C=C3N(C)c4ccccc4C3(C)C)=C2[O-])sc2ccccc21

emission maximum (in ClC(Cl)Cl): 387 nm
SMILES: CCOC(=O)C1(O)c2cc3ccc4cccc5ccc(c2C(=O)N1C(C)(C)C)c3c45 (stereo unspecified)

emission maximum (in CC#N): 538 nm | emission maximum (in CCCCCC): 500 nm | emission maximum (in CO): 548 nm | emission maximum (in c1ccccc1): 514 nm
SMILES: O=c1oc2cc3ccccc3cc2nc1-c1ccccc1

emission maximum (in ClCCl): 495 nm
SMILES: CCOC(=O)C1=C(C(=O)OCC)C2(c3ccccc3-c3c(Br)cc(Br)cc32)C2(/C=C/c3ccc(Cl)cc3)c3cc(OC)c(OC)cc3CCN12 (stereo unspecified)

emission maximum (in ClCCl): 475 nm
SMILES: COC(=O)c1[nH]c(-c2ccc(Br)cc2)c2nnc3ccc(OC)cc3c12

SMILES: c1ccc(-c2ccc3c(c2)c2cc(-c4ccccc4)ccc2n3-c2ccc3c(c2)c2cc(-n4c5ccc(-c6ccccc6)cc5c5cc(-c6ccccc6)ccc54)ccc2n3-c2ccc(-c3nc(-c4ccccc4)nc(-c4ccccc4)n3)cc2)cc1
emission maximum (in Cc1ccccc1): 457 nm | emission maximum [1]: 480 nm

emission maximum (in C1CCOC1): 734 nm | emission maximum (in CC#N): 733 nm | emission maximum (in ClCCl): 736 nm
SMILES: CCC(CC)COC1=CC2=C3c4cc(OCC(CC)CC)c(-c5ccccc5)n4[B-](F)(F)[n+]4c3n(c3cc(C(C)(C)C)ccc34)[B-](F)(F)[N+]2=C1c1ccccc1

emission maximum (in ClCCl): 445 nm
SMILES: CCOC(=O)C1=C(C(=O)OCC)C2(c3ccccc3-c3ccccc32)[C@@H](c2ccc(Cl)cc2)C=C2c3cc(OC)c(OC)cc3CCN21

emission maximum (in CCO): 460 nm
SMILES: Cc1c(C)n2c(COC(=O)c3ccc(F)cc3)c(C)c(=O)n2c1=O

emission maximum (in C1CCCCC1): 400 nm | emission maximum (in CO): 420 nm
SMILES: COc1ccc(/C=C(\c2ccccc2)c2nc3ccccc3s2)cc1

emission maximum (in ClC(Cl)Cl): 617 nm
SMILES: CC(C)(C)c1ccc(Oc2cc3c4c(cc(Oc5ccc(C(C)(C)C)cc5)c5c6c(Oc7ccc(C(C)(C)C)cc7)cc7c8c(cc(Oc9ccc(C(C)(C)C)cc9)c(c2c45)c86)C(=O)N(c2ccccc2)C7=O)C(=O)N(c2ccccc2)C3=O)cc1

emission maximum (in O): 550 nm
SMILES: N#Cc1c(N2CCCC2)cc(-c2ccccc2)c2c1-c1cccc3cccc-2c13

emission maximum (in O): 360 nm and 345 nm and 340 nm
SMILES: c1ccc2[nH]ccc2c1

emission maximum (in C1CCOC1): 518 nm
SMILES: N#Cc1ccc(C2=CC3=c4cc(-c5ccc(C#N)cc5)c5nc(C(F)(F)C(F)(F)C(F)(F)F)nc6c(-c7ccc(C#N)cc7)cc(c4c65)C4=CC(c5ccc(C#N)cc5)=C5N=C(C(F)(F)C(F)(F)C(F)(F)F)N=C2C5C43)cc1 (stereo unspecified)

emission maximum (in CC#N): 449 nm | emission maximum (in CCO): 479 nm
SMILES: CC1(C)CC(=O)c2c(F)c(F)c(F)c(F)c2N1

emission maximum (in C1COCCO1): 349 nm
SMILES: CC(C)(C)c1cc(-c2ccc(-c3cc(C(C)(C)C)cc(C(C)(C)C)c3)cc2)cc(C(C)(C)C)c1

emission maximum (in C1CCCCC1): 498 nm | emission maximum (in CC#N): 534 nm | emission maximum (in CCO): 541 nm | emission maximum (in c1ccccc1): 520 nm
SMILES: CN(C)c1cccc2c1C(=O)c1ccccc1-2

emission maximum (in ClCCl): 422 nm
SMILES: Cc1cn2cc(-c3ccccc3)[n-][n+]2c1

SMILES: CCCCCCc1ccc(-n2c3[n+](c4c5ccccc5c5ccccc5c42)[B-](C)(C)c2ccccc2-3)cc1
emission maximum (in C1CCOC1): 384 nm | emission maximum (in CC#N): 385 nm | emission maximum (in Cc1ccccc1): 385 nm | emission maximum (in ClCCl): 385 nm

emission maximum (in ClCCl): 441 nm
SMILES: CCN(CC)c1ccc2c(c1)oc(=O)c1cnc3c(cnn3-c3ccccc3)c12

SMILES: Cc1ccc(N(c2ccc(C)cc2)c2ccc(-c3ccc(-c4ccc(N(c5ccc(C)cc5)c5ccc(C)cc5)cc4)c4nsnc34)cc2)cc1
emission maximum (in Cc1ccccc1): 628 nm | emission maximum (in ClCCl): 609 nm

SMILES: CC1(C)c2ccccc2-n2c(-c3ccc(N4c5ccccc5Oc5ccccc54)cc3)nc3cccc1c32
emission maximum (in Cc1ccccc1): 502 nm | emission maximum [1]: 485 nm

emission maximum (in CN(C)C=O): 401 nm
SMILES: S=c1[nH]nc(-c2ccc(/C=C/c3ccc(-c4n[nH]c(=S)o4)cc3)cc2)o1

emission maximum (in CO): 813 nm
SMILES: O=C(O)c1ccc(C2=C(/C=C/c3[se]c4ccccc4[n+]3CCCCS(=O)(=O)[O-])CCC/C2=C\C=C2/[Se]c3ccccc3N2CCCCS(=O)(=O)[O-])cc1

emission maximum (in ClCCl): 447 nm
SMILES: CCn1c2cc(-c3ccc(-c4cccs4)s3)ccc2c2ccc(-c3ccc(-c4cccs4)s3)cc21

emission maximum (in ClC(Cl)Cl): 468 nm
SMILES: c1ccc(-c2ccc(-c3nc(-c4ccccc4)c(N(c4ccccc4)c4ccccc4)[se]3)cc2)cc1

emission maximum (in CO): 605 nm
SMILES: CCCCCCc1cc(B(c2c(C)cc(C)cc2C)c2c(C)cc(C)cc2C)c(-c2sc(CCCCCC)cc2P(=O)(c2ccccc2)c2ccccc2)s1

SMILES: CC(C)(C)c1ccc2c(c1)c1cc(C(C)(C)C)ccc1n2-c1ccc(-c2nc(-c3ccc(-n4c5ccc(C(C)(C)C)cc5c5cc(C(C)(C)C)ccc54)cc3)nc(-c3ccc(P(=O)(c4ccccc4)c4ccccc4)cc3)n2)cc1
emission maximum (in C1CCOC1): 501.73 nm | emission maximum (in CC#N): 543.52 nm | emission maximum (in CC(C)=O): 525.92 nm | emission maximum (in CN(C)C=O): 574.19 nm | emission maximum (in Cc1ccccc1): 474.19 nm | emission maximum (in ClCCl): 526.57 nm | emission maximum [1]: 492 nm
